Like-named read-outs stand apart in the source and are kept apart here.
Test: tissue distribution after single and repeated administration
Assay type: in vivo, mice
Settings: for concentration at 24 h: 20 mg/kg, mean ± SEM
Experimental: Via heparin-coated catheters a maximum of 50 µL blood was collected from the tail vein at 0.25, 0.5, 1, 2, 3, 4, 6, 8, or 24 h after administration and immediately centrifuged at 4000× g at 4 °C for 10 min. For repeated administration 20 mg/kg BW SH045 were administered at 8:00 a.m. on five consecutive days, once a day. Blood was taken 1 h and 24 h after drug administration. Tissue samples were harvested from isoflurane-euthanized animals at indicated time points. Mice were transcardially perfused with PBS and dissected tissues were washed to remove remaining blood. Plasma and tissue samples were stored at −80 °C until analysis. Urine was collected by bladder puncture at indicated time points.
For tissue analysis, homogenates (10% in phosphate-buffered saline, PBS) were prepared. Homogenate, plasma, and urine were mixed with IS and extracted with ice-cold ACN, centrifuged, filtered and stored in the autosampler at 6 °C until analysis in duplicates by LC-MS/MS (details in Supplementary Materials SM4).
Larixyl-N-methylcarbamate ((1S,4S,4aR,8aS)-4-((S)-3-hydroxy-3-methylpent-4-en-1-yl)-4a,8,8-trimethyl-3-methylenedeca-hydro-naphthalen-1-yl methylcarbamate, SH045, TRPC6 inhibitor) was synthesized as described by Häfner et al. [1]. (+)-Larixol (internal standard, IS) was isolated from Larix decidua turpentine [2]. Kolliphor® EL was obtained from Caelo (Hilden, Germany). Acetonitrile (ACN), water, and formic acid (LC -MS grade each) were purchased from Fisher Scientific (Schwerte, Germany). Testo sterone, 4-nitrophenol, β-nicotinamide adenine dinucleotide 2′ -phosphate reduced tetrasodium salt hydrate (β-NADPH), uridine 5′-diphosphoglucuronic acid ammonium salt (UDPGA), pilocarpine, ticlopidine, quercetin, sulfaphenazole, fluvoxamine, quinidine, 4-methyl pyrazole, ketoconazole, alamethicin and Dulbecco’s phosphate-buffered saline (DPBS, pH 7.4) were obtained from Merck (Darmstadt, Germany). Ciprofloxacin was purchased from Bayer AG (Leverkusen, Germany). Liver microsomes from mice (CD-1, male, MLM) and human (pooled: 50 donors, HLM) were obtained from Fisher Scientific (Gibco, protein concentration: 20 mg/mL respectively). Syringe filters (Phenex, regenerated cellulose, pore-size 0.2 μm) were purchased from Phenomenex (Aschaffenburg, Germany) and centrifugal filter units (30 kDa) from Merck Millipore […]
SM2 Quantification of SH045 by HPLC and tandem mass spectrometric methods (LC-MS/MS) In brief, chromatographic separation was achieved using a Zorbax Eclipse XDB-C8 column (100 × 3.0 mm, 3.5 μm 80 Å, Agilent Technologies) with linear gradient elution using water and ACN, each with 0.1 % formic acid as additive, during a total run time of 20 min. For quantification (+)-larixol was used as IS. MS detection was achieved by multiple reaction monitoring (MRM) scan mode for SH045 (m/z 364.3/289.3) and IS (m/z 307.2/151.2), respectively. Further conditions and parameters were set as reported previously [3]. Freshly prepared calibration samples for SH045 in plasma and tissue comprised eight concentration levels analyzed in duplicates (2, 5, 10, 100, 200, 800, 1200 and 1600 ng/mL). For metabolism studies in microsomes, SH045 was dissolved in pure DMSO. […]
All analyses for metabolite identification included comparative measurements of appropriate control samples in order to avoid false-positive results.
SM3 Histopathological examination of tissue repeatedly exposed to SH045 Liver, kidney and lung were collected after repeated administration for inspection for histopathological changes, fixed in 4% paraformaldehyde solution and embedded in paraffin. Tissue slices (6 µm) of three animals either of untreated controls or such assigned to repeated administration of SH045 were deparaffinized and hematoxylin and eosin-stained. At least 5 slices per animal and tissue were microscopically examined using a light microscope (Zeiss, […]
SM4 Preparation of samples for analysis of SH045 and its metabolites by LC-MS/MS […]

entry into the brain (20 mg/kg i.v.): entered the brain
drug accumulation in tissues after repeated administration (20 mg/kg i.v. five times once a day): no hints for drug accumulation
concentration at 24 h (male, C57BL/6, mouse, brain, iv, 24 h after repeated (5 days, once a day) 20 mg/kg BW i.v., read-out: Concentration, Brain): 19.6 ± 5.5 ng/g
concentration at 24 h (male, C57BL/6, mouse, brain, iv, 24 h after single (1×) 20 mg/kg BW i.v., read-out: Concentration, Brain): 14.8 ± 7.6 ng/g
concentration at 24 h (male, C57BL/6, mouse, fat, iv, 24 h after repeated (5 days, once a day) 20 mg/kg BW i.v., read-out: Concentration, Fat): 369 ± 50 ng/g
concentration at 24 h (male, C57BL/6, mouse, fat, iv, 24 h after single (1×) 20 mg/kg BW i.v., read-out: Concentration, Fat): 333 ± 61.2 ng/g
concentration at 24 h (male, C57BL/6, mouse, kidney, iv, 24 h after repeated (5 days, once a day) 20 mg/kg BW i.v., read-out: Concentration, Kidney): 17.8 ± 4.4 ng/g
concentration at 24 h (male, C57BL/6, mouse, kidney, iv, 24 h after single (1×) 20 mg/kg BW i.v., read-out: Concentration, Kidney): 14.8 ± 5.9 ng/g
concentration at 24 h (male, C57BL/6, mouse, liver, iv, 24 h after repeated (5 days, once a day) 20 mg/kg BW i.v., read-out: Concentration, Liver): 17.5 ± 4.6 ng/g
concentration at 24 h (male, C57BL/6, mouse, liver, iv, 24 h after single (1×) 20 mg/kg BW i.v., read-out: Concentration, Liver): 14.2 ± 5.2 ng/g
Kp (male, C57BL/6, mouse, lung, iv, 20 mg/kg BW, after i.v. administration, read-out: first-pass uptake into the lung relative to respective plasma concentration): ~20
concentration at 24 h (male, C57BL/6, mouse, lung, iv, 24 h after repeated (5 days, once a day) 20 mg/kg BW i.v., read-out: Concentration, Lung): 2390 ± 1020 ng/g
concentration at 24 h (male, C57BL/6, mouse, lung, iv, 24 h after single (1×) 20 mg/kg BW i.v., read-out: Concentration, Lung): 2170 ± 414 ng/g
Structure (SMILES): C=C[C@@](C)(O)CC[C@H]1C(=C)C[C@H](OC(=O)NC)[C@H]2C(C)(C)CCC[C@]12C [SH045, (1S,4S,4aR,8aS)-4-((S)-3-Hydroxy-3-methylpent-4-en-1-yl)-4a,8,8-trimethyl-3-methylenedecahydronaphthalen-1-yl methylcarbamate]
